Laboratory results: ChEMBL document CHEMBL3102750 (J Med Chem, 2013)
pIC50: −log10 of the molar value.

How the values were obtained:
Type in all cases: functional, cell-based
[1] = molecular target: T1, Muscarinic acetylcholine receptor M1 (Homo sapiens, UniProt P11229); test: Negative allosteric modulation of human muscarinic acetylcholine receptor M1 expressed in CHO cells assessed as inhibition of acetylcholine-induced calcium mobilization incubated for 150 secs prior to acetylcholine induction by Fluo-4 AM staining-based fluorescence assay
T1 sequence (P11229 whole entry): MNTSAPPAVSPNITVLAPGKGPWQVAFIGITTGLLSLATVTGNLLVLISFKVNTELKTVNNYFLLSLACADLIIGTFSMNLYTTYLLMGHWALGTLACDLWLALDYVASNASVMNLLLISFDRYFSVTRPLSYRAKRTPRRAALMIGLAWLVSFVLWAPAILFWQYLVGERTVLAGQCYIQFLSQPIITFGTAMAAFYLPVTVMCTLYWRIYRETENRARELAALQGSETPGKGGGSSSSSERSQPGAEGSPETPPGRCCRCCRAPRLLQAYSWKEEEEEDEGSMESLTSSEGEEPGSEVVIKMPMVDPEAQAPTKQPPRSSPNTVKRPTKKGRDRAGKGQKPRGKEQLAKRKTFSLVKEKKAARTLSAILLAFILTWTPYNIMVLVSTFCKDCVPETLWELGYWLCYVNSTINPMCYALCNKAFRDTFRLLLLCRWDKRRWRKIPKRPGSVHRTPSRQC

[2] = molecular target: T2, Muscarinic acetylcholine receptor M2 (Homo sapiens, UniProt P08172); test: Negative allosteric modulation of human muscarinic acetylcholine receptor M2 expressed in CHO cells assessed as inhibition of acetylcholine-induced calcium mobilization incubated for 150 secs prior to acetylcholine induction by Fluo-4 AM staining-based fluorescence assay
T2 sequence (P08172 whole entry): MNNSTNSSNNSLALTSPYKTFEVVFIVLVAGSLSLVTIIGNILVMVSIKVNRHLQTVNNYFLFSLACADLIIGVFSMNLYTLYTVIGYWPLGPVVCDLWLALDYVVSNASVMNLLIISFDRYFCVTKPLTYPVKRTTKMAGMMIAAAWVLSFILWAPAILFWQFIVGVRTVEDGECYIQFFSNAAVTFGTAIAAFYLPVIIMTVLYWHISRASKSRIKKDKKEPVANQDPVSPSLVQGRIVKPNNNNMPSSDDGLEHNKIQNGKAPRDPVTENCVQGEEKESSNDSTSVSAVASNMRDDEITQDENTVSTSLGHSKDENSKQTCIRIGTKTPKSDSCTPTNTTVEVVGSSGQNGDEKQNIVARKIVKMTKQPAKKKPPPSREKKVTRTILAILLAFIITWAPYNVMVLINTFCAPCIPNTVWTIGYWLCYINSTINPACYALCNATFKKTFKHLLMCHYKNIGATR

[3] = molecular target: Muscarinic acetylcholine receptor M3 (Homo sapiens, UniProt P20309); test: Negative allosteric modulation of human muscarinic acetylcholine receptor M3 expressed in CHO cells assessed as inhibition of acetylcholine-induced calcium mobilization incubated for 150 secs prior to acetylcholine induction by Fluo-4 AM staining-based fluorescence assay
[4] = molecular target: T3, Muscarinic acetylcholine receptor M4 (Homo sapiens, UniProt P08173); test: Negative allosteric modulation of human muscarinic acetylcholine receptor M4 expressed in CHO cells assessed as inhibition of acetylcholine-induced calcium mobilization incubated for 150 secs prior to acetylcholine induction by Fluo-4 AM staining-based fluorescence assay
T3 sequence (P08173 whole entry): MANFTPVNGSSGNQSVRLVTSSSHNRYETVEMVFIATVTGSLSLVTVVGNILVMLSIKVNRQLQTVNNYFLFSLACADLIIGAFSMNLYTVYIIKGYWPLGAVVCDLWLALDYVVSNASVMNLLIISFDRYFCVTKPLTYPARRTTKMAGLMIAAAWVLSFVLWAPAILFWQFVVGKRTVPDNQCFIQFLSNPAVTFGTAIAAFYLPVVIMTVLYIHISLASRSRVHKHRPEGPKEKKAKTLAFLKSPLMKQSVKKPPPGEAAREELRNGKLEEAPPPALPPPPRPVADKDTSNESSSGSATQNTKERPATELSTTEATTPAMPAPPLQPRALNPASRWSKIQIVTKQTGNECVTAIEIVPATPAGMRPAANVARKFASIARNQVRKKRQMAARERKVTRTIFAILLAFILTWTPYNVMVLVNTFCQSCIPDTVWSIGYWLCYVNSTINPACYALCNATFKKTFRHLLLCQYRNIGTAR

[5] = molecular target: T4, Muscarinic acetylcholine receptor M2 (Rattus norvegicus, UniProt P10980); test: Negative allosteric modulation of rat muscarinic acetylcholine receptor M2 expressed in CHO cells assessed as inhibition of acetylcholine-induced calcium mobilization incubated for 150 secs prior to acetylcholine induction by Fluo-4 AM staining-based fluorescence assay
T4 sequence (P10980 whole entry): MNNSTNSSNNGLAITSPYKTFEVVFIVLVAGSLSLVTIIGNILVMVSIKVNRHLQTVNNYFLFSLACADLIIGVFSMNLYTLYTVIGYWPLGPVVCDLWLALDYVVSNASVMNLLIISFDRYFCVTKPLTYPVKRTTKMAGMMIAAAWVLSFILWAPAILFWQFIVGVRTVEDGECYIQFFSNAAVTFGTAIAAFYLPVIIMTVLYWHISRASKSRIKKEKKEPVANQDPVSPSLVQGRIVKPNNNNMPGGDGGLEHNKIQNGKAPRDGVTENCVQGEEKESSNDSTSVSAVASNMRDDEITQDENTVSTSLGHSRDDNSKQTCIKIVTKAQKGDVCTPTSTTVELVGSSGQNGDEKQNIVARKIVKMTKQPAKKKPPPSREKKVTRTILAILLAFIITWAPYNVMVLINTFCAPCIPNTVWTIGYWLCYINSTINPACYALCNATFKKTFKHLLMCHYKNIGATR

[6] = molecular target: Muscarinic acetylcholine receptor M3 (Rattus norvegicus, UniProt P08483); test: Negative allosteric modulation of rat muscarinic acetylcholine receptor M3 expressed in CHO cells assessed as inhibition of acetylcholine-induced calcium mobilization incubated for 150 secs prior to acetylcholine induction by Fluo-4 AM staining-based fluorescence assay
[7] = molecular target: T5, Muscarinic acetylcholine receptor M4 (Rattus norvegicus, UniProt P08485); test: Negative allosteric modulation of rat muscarinic acetylcholine receptor M4 expressed in CHO cells assessed as inhibition of acetylcholine-induced calcium mobilization incubated for 150 secs prior to acetylcholine induction by Fluo-4 AM staining-based fluorescence assay
T5 sequence (P08485 whole entry): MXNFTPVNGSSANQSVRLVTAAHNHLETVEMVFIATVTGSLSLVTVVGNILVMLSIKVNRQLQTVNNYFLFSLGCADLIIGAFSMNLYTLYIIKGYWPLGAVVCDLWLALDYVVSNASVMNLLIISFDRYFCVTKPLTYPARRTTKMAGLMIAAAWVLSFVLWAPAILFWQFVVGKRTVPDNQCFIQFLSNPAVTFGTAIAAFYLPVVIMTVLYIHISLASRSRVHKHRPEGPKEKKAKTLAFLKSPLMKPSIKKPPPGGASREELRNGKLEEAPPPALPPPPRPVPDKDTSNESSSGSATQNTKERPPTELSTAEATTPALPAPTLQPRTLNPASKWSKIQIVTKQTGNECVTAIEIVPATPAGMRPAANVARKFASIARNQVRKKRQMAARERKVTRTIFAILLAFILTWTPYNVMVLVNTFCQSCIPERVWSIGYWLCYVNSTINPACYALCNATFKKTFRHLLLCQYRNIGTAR

Measured: pIC50

Sequence of Muscarinic acetylcholine receptor M3 (Rattus norvegicus, UniProt P08483) (P08483 whole entry): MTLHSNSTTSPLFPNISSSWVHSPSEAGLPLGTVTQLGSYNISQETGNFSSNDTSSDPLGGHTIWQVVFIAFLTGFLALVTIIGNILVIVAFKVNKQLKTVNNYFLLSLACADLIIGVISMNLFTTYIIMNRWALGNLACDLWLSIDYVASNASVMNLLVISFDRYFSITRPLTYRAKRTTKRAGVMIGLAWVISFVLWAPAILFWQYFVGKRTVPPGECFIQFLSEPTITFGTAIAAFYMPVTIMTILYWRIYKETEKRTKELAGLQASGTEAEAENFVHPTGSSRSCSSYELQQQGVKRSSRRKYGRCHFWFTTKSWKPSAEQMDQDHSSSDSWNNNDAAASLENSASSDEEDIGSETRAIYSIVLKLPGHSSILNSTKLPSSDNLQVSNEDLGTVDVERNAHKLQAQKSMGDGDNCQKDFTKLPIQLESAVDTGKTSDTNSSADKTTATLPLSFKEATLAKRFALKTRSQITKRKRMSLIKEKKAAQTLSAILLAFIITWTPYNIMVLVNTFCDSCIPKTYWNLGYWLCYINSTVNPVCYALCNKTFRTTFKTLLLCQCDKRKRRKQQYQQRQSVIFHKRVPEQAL
Sequence of Muscarinic acetylcholine receptor M3 (Homo sapiens, UniProt P20309) (P20309 whole entry): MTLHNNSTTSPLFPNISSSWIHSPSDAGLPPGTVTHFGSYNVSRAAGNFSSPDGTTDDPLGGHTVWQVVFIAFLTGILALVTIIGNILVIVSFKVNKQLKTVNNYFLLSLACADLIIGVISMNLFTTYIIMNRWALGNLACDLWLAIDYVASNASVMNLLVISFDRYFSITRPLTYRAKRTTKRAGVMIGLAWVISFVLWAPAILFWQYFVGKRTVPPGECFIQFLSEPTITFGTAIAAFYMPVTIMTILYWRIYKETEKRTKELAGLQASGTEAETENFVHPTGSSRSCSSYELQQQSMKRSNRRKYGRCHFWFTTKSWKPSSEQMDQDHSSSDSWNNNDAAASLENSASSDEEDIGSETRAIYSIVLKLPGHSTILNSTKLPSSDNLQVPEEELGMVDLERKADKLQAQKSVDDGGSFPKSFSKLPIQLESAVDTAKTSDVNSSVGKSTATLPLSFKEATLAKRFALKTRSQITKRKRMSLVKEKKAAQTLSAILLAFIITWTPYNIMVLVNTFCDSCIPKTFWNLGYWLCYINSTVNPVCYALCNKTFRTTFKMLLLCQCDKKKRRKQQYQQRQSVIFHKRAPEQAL

O=C(c1ccc(F)c(F)c1)N1CCN2C(=O)c3ccccc3[C@@]12c1ccc(Cl)cc1
< 4.52: all assays above

O=C(c1ccc(F)c(F)c1)N1CCN2C(=O)c3ccccc3C12c1ccccc1 (centres undefined)
< 4.52: all assays above
